This experiment has as its system ASAT1H (SqASAT1H; c39979_g2_i1). Put plainly: LC-MS/MS product formation, Michaelis-Menten fit. In kind it is biochemical, Solanum quitoense. The note with it: read-out: apparent Km, 30 °C, pH 6 (default), 20 min.

The values below come from publication PMC9219006 (Plant Direct, 2022).

Like-named read-outs stand apart in the source and are kept apart here.

In the case of `CCCCCCCCCC(=O)SCCNC(=O)CCNC(=O)[C@H](O)C(C)(C)COP(=O)(O)OP(=O)(O)OC[C@H]1O[C@@H](n2cnc3c(N)ncnc32)[C@H](O)[C@@H]1OP(=O)(O)O` [nC10-CoA], under “myo-inositol saturating”, the Michaelis constant (Km) amounted to 9.5 ± 2.4 µM.

As to `CCCCCCCCCCCC(=O)SCCNC(=O)CCNC(=O)[C@H](O)C(C)(C)COP(=O)(O)OP(=O)(O)OC[C@H]1O[C@@H](n2cnc3c(N)ncnc32)[C@H](O)[C@@H]1OP(=O)(O)O` [nC12-CoA], the Michaelis constant (Km) (myo-inositol saturating) is 16.6 ± 6.6 µM.

Turning to `O[C@H]1[C@H](O)[C@@H](O)[C@H](O)[C@@H](O)[C@H]1O` [myo-inositol], the Km (nC10-CoA saturating) is 4400 ± 1100 µM.

One may read the Km as the concentration of substrate that gives half-maximal velocity.
